These results are taken from ChEMBL document CHEMBL1132786, “Chemical modification of nodulisporic acid A: preliminary structure-activity relationships” (2000).

Where only a bound is given, the exact number is not on record here.

The test system of the assay is Ctenocephalides felis. Nature of the assay: Systemic activity against adult cat fleas (Ctenocephalides felis). Format: functional.
`C=C(C)[C@H]1C(=O)c2c3c(cc4c5c(n1c24)[C@@]1(C)C(CC[C@H]2[C@](C)(/C=C/C=C(\C)C(=O)N4CCN(S(C)(=O)=O)CC4)[C@@H](O)CC[C@@]21C)C5)C1=CC(C)(C)OC(C)(C)C1[C@@H]3O` (stereo not given in full) [NODULISPORAMIDE]: the “Effective concentration, systemic activity against adult cat fleas” value (from here on “Effective concentration”) was ~0.01 p.p.m.

Consider `C=C(C)[C@H]1C(=O)c2c3c(cc4c5c(n1c24)[C@@]1(C)C(CC[C@H]2[C@](C)(/C=C/C=C(\C)C(=O)NC(C)(C)C(=O)OC)[C@@H](O)CC[C@@]21C)C5)C1=CC(C)(C)OC(C)(C)C1[C@@H]3O` (stereo not given in full), for which the “Effective concentration” value came to 1 p.p.m. Consider `C=C(C)[C@H]1C(=O)c2c3c(cc4c5c(n1c24)[C@@]1(C)C(CC[C@H]2[C@](C)(/C=C/C=C(\C)C(N)=O)[C@@H](O)CC[C@@]21C)C5)C1=CC(C)(C)OC(C)(C)C1[C@@H]3O` (stereo not given in full), for which the “Effective concentration” value is ~0.1 p.p.m. With `C=C(C)[C@H]1C(=O)c2c3c(cc4c5c(n1c24)[C@@]1(C)C(CC[C@H]2[C@](C)(/C=C/C=C(\C)C(=O)NCc4ccc(Cl)cc4)[C@@H](O)CC[C@@]21C)C5)C1=CC(C)(C)OC(C)(C)C1[C@@H]3O` (stereo not given in full), the “Effective concentration” value came to 0.1 p.p.m. As to `C=C(C)[C@H]1C(=O)c2c3c(cc4c5c(n1c24)[C@@]1(C)C(CC[C@H]2[C@](C)(/C=C/C=C(\C)C(=O)OCCOCCO)[C@@H](O)CC[C@@]21C)C5)C1=CC(C)(C)OC(C)(C)C1[C@@H]3O` (stereo not given in full), the “Effective concentration” value amounted to 0.1 p.p.m. Take `C=C(C)[C@H]1C(=O)c2c3c(cc4c5c(n1c24)[C@@]1(C)C(CC[C@H]2[C@](C)(/C=C/C=C(\C)C(=O)N4CCN(C)CC4)[C@@H](O)CC[C@@]21C)C5)C1=CC(C)(C)OC(C)(C)C1[C@@H]3O` (stereo not given in full): the “Effective concentration” value is 1 p.p.m. In the case of `C=C(C)[C@H]1C(=O)c2c3c(cc4c5c(n1c24)[C@@]1(C)C(CC[C@H]2[C@](C)(/C=C/C=O)[C@@H](O)CC[C@@]21C)C5)C1=CC(C)(C)OC(C)(C)C1[C@@H]3O` (stereo not given in full), the “Effective concentration” value is ~10 p.p.m. Take `C=C(C)[C@H]1C(=O)c2c3c(cc4c5c(n1c24)[C@@]1(C)C(CC[C@H]2[C@](C)(/C=C/C=C(\C)C(=O)Nc4ccc(F)cc4)[C@@H](O)CC[C@@]21C)C5)C1=CC(C)(C)OC(C)(C)C1[C@@H]3O` (stereo not given in full): the “Effective concentration” value worked out at 1 p.p.m. Regarding `C=C(C)[C@H]1C(=O)c2c3c(cc4c5c(n1c24)[C@@]1(C)C(CC[C@H]2[C@](C)(/C=C/C=C(\C)C(=O)NCC(N)=O)[C@@H](O)CC[C@@]21C)C5)C1=CC(C)(C)OC(C)(C)C1[C@@H]3O` (stereo not given in full), the “Effective concentration” value was found to be 10 p.p.m. As to `C=C(C)[C@H]1C(=O)c2c3c(cc4c5c(n1c24)[C@@]1(C)C(CC[C@H]2[C@](C)(/C=C/C=C(\C)C(=O)N(C)C)[C@@H](O)CC[C@@]21C)C5)C1=CC(C)(C)OC(C)(C)C1[C@@H]3O` (stereo not given in full), the “Effective concentration” value is ~0.1 p.p.m. Consider `C=C(C)[C@H]1C(=O)c2c3c(cc4c5c(n1c24)[C@@]1(C)C(CC[C@H]2[C@](C)(/C=C/C=C(\C)C(=O)OC)[C@@H](O)CC[C@@]21C)C5)C1=CC(C)(C)OC(C)(C)C1[C@@H]3O` (stereo not given in full), for which the “Effective concentration” value is listed as ~10 p.p.m. In the case of `C=C(C)[C@H]1C(=O)c2c3c(cc4c5c(n1c24)[C@@]1(C)C(CC[C@H]2[C@](C)(/C=C/C=C(\C)C(=O)N(CC)CCC)[C@@H](O)CC[C@@]21C)C5)C1=CC(C)(C)OC(C)(C)C1[C@@H]3O` (stereo not given in full), the “Effective concentration” value is reported as ~0.1 p.p.m. Regarding `C=C(C)[C@H]1C(=O)c2c3c(cc4c5c(n1c24)[C@@]1(C)C(CC[C@H]2[C@](C)(/C=C/C=C(\C)C(=O)NCCC(=O)O)[C@@H](O)CC[C@@]21C)C5)C1=CC(C)(C)OC(C)(C)C1[C@@H]3O` (stereo not given in full), the “Effective concentration” value is >10 p.p.m. On to `C=C(C)[C@H]1C(=O)c2c3c(cc4c5c(n1c24)[C@@]1(C)C(CC[C@H]2[C@](C)(/C=C/C=C(\C)C(=O)N4CCCCC4)[C@@H](O)CC[C@@]21C)C5)C1=CC(C)(C)OC(C)(C)C1[C@@H]3O` (stereo not given in full), for which the “Effective concentration” value is ~1 p.p.m. As for `C=C(C)[C@H]1C(=O)c2c3c(cc4c5c(n1c24)[C@@]1(C)C(CC[C@H]2[C@](C)(/C=C/C=C(\C)C(=O)N4CCN(C(=O)OCC)CC4)[C@@H](O)CC[C@@]21C)C5)C1=CC(C)(C)OC(C)(C)C1[C@@H]3O` (stereo not given in full), the “Effective concentration” value is 0.1 p.p.m. Take `C=C(C)[C@H]1C(=O)c2c3c(cc4c5c(n1c24)[C@@]1(C)C(CC[C@H]2[C@](C)(/C=C/C=C(\C)C(=O)NCCCCCC)[C@@H](O)CC[C@@]21C)C5)C1=CC(C)(C)OC(C)(C)C1[C@@H]3O` (stereo not given in full): the “Effective concentration” value was ~0.5 p.p.m.

As to `C=C(C)[C@H]1C(=O)c2c3c(cc4c5c(n1c24)[C@@]1(C)C(CC[C@H]2[C@](C)(/C=C/C=C(\C)C(=O)NCCO)[C@@H](O)CC[C@@]21C)C5)C1=CC(C)(C)OC(C)(C)C1[C@@H]3O` (stereo not given in full), the “Effective concentration” value turned out to be 0.5 p.p.m. On to `C=C(C)[C@H]1C(=O)c2c3c(cc4c5c(n1c24)[C@@]1(C)C(CC[C@H]2[C@](C)(/C=C/C=C(\C)C(=O)NC(C)(C)C(=O)N(C)C)[C@@H](O)CC[C@@]21C)C5)C1=CC(C)(C)OC(C)(C)C1[C@@H]3O` (stereo not given in full), for which the “Effective concentration” value is recorded as 0.01 p.p.m. The result for `C=C(C)[C@H]1C(=O)c2c3c(cc4c5c(n1c24)[C@@]1(C)C(CC[C@H]2[C@](C)(/C=C/C=C(\C)C(=O)O)[C@@H](O)CC[C@@]21C)C5)C1=CC(C)(C)OC(C)(C)C1[C@@H]3O` (stereo not given in full) [NOD ACID A] reads 1 p.p.m; that for `C=C(C)[C@H]1C(=O)c2c3c(cc4c5c(n1c24)[C@@]1(C)C(CC[C@H]2[C@](C)(/C=C/C=C(\C)C(=O)OCCCO)[C@@H](O)CC[C@@]21C)C5)C1=CC(C)(C)OC(C)(C)C1[C@@H]3O` (stereo not given in full), 10 p.p.m; that for `C=C(C)[C@H]1C(=O)c2c3c(cc4c5c(n1c24)[C@@]1(C)C(CC[C@H]2[C@](C)(/C=C/C=C(\C)C(=O)NCCN(C)C)[C@@H](O)CC[C@@]21C)C5)C1=CC(C)(C)OC(C)(C)C1[C@@H]3O` (stereo not given in full), 10 p.p.m.

With `C=C(C)[C@H]1C(=O)c2c3c(cc4c5c(n1c24)[C@@]1(C)C(CC[C@H]2[C@](C)(C=O)[C@@H](O)CC[C@@]21C)C5)C1=CC(C)(C)OC(C)(C)C1[C@@H]3O` (stereo not given in full), the “Effective concentration” value is on record as ~10 p.p.m. As for `C=C(C)[C@H]1C(=O)c2c3c(cc4c5c(n1c24)[C@@]1(C)C(CC[C@H]2[C@](C)(/C=C/C=C(\C)C(=O)OCCO)[C@@H](O)CC[C@@]21C)C5)C1=CC(C)(C)OC(C)(C)C1[C@@H]3O` (stereo not given in full), the “Effective concentration” value is on record as ~1 p.p.m. Regarding `C=C(C)[C@H]1C(=O)c2c3c(cc4c5c(n1c24)[C@@]1(C)C(CC[C@H]2[C@](C)(/C=C/C=C(\C)C(=O)SCC)[C@@H](O)CC[C@@]21C)C5)C1=CC(C)(C)OC(C)(C)C1[C@@H]3O` (stereo not given in full), the “Effective concentration” value was >1 p.p.m. With `C=C(C)[C@H]1C(=O)c2c3c(cc4c5c(n1c24)[C@@]1(C)C(CC[C@H]2[C@](C)(/C=C/C=C(\C)C(=O)NC)[C@@H](O)CC[C@@]21C)C5)C1=CC(C)(C)OC(C)(C)C1[C@@H]3O` (stereo not given in full), the “Effective concentration” value was ~0.1 p.p.m.
